Assay results reported in ChEMBL document CHEMBL1201862, “PubChem BioAssay data set” (2004).
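Results reflect a 48-hour exposure of cells in 96-well plates to compound at five concentrations. At the GI50, growth is halved.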 Calls of active or inactive are those of the source. No stated cut-off is given here; in the data, active = GI50 up to about 1.1 µM and inactive = higher.

How the values were obtained:
Experiment in all cases: NCI anticancer screen, dose series, 48 h
K562 = tested on: K562
HCT-116 = tested on: HCT-116
HOP-18 = tested on: HOP-18
NCI-H23 = tested on: NCI-H23
XF498 = tested on: XF498
SF-539 = tested on: SF-539
OVCAR-5 = tested on: OVCAR-5
SN12C = tested on: SN12C
DLD-1 = tested on: DLD-1
TK-10 = tested on: TK-10
SF-295 = tested on: SF-295
DMS-114 = tested on: DMS-114
EKVX = tested on: EKVX
NCI-H226 = tested on: NCI-H226
OVCAR-4 = tested on: OVCAR-4
RPMI-8226 = tested on: RPMI-8226
KM-20L2 = tested on: KM-20L2
CCRF-CEM = tested on: CCRF-CEM
SK-MEL-28 = tested on: SK-MEL-28
SW-620 = tested on: SW-620
HT-29 = tested on: HT-29
HL-60 = tested on: HL-60
IGROV-1 = tested on: IGROV-1
A498 = tested on: A498
SK-OV-3 = tested on: SK-OV-3
RXF 631 = tested on: RXF 631
OVCAR-3 = tested on: OVCAR-3
A549 = tested on: A549
786-0 = tested on: 786-0
Malme-3M = tested on: Malme-3M
SNB-75 = tested on: SNB-75
MOLT-4 = tested on: MOLT-4
HCT-15 = tested on: HCT-15
SK-MEL-2 = tested on: SK-MEL-2
HOP-92 = tested on: HOP-92
M19-MEL = tested on: M19-MEL
HOP-62 = tested on: HOP-62
OVCAR-8 = tested on: OVCAR-8
LXFL 529 = tested on: LXFL 529
LOX IMVI = tested on: LOX IMVI
ACHN = tested on: ACHN
CAKI-1 = tested on: CAKI-1
SNB-19 = tested on: SNB-19
SK-MEL-5 = tested on: SK-MEL-5
UACC-257 = tested on: UACC-257
NCI-H460 = tested on: NCI-H460
RXF 393 = tested on: RXF 393
KM12 = tested on: KM12
SF-268 = tested on: SF-268
UACC-62 = tested on: UACC-62
U-251 = tested on: U-251
HCC 2998 = tested on: HCC 2998
SNB-78 = tested on: SNB-78
DMS-273 = tested on: DMS-273
M14 = tested on: M14
COLO 205 = tested on: COLO 205
UO-31 = tested on: UO-31

COc1ccc(OC)c(NC(=O)C(=O)C(C(C)=O)c2nc3ccc(Cl)cc3nc2O)c1 (configuration not stated)
GI50 (K562): > 50 µM (inactive) | GI50 (HCT-116): > 50 µM (inactive) | GI50 (HOP-18): 45.2 µM (inactive) | GI50 (NCI-H23): > 50 µM (inactive) | GI50 (XF498): > 50 µM (inactive) | GI50 (SF-539): > 50 µM (inactive) | GI50 (OVCAR-5): > 50 µM (inactive) | GI50 (SN12C): > 50 µM (inactive) | GI50 (DLD-1): > 50 µM (inactive) | GI50 (TK-10): > 50 µM (inactive) | GI50 (SF-295): > 50 µM (inactive) | GI50 (DMS-114): > 50 µM (inactive) | GI50 (EKVX): > 50 µM (inactive) | GI50 (NCI-H226): > 50 µM (inactive) | GI50 (OVCAR-4): > 50 µM (inactive) | GI50 (RPMI-8226): > 50 µM (inactive) | GI50 (KM-20L2): > 50 µM (inactive) | GI50 (CCRF-CEM): > 5 µM (inactive) | GI50 (SK-MEL-28): > 50 µM (inactive) | GI50 (SW-620): > 50 µM (inactive) | GI50 (HT-29): > 50 µM (inactive) | GI50 (HL-60): > 50 µM (inactive) | GI50 (IGROV-1): > 50 µM (inactive) | GI50 (A498): > 50 µM (inactive) | GI50 (SK-OV-3): > 50 µM (inactive) | GI50 (RXF 631): > 50 µM (inactive) | GI50 (OVCAR-3): > 50 µM (inactive) | GI50 (A549): > 50 µM (inactive) | GI50 (786-0): > 50 µM (inactive) | GI50 (Malme-3M): > 50 µM (inactive) | GI50 (SNB-75): > 50 µM (inactive) | GI50 (MOLT-4): > 50 µM (inactive) | GI50 (HCT-15): > 50 µM | GI50 (SK-MEL-2): > 50 µM (inactive) | GI50 (HOP-92): > 50 µM (inactive) | GI50 (M19-MEL): > 50 µM (inactive) | GI50 (HOP-62): > 50 µM (inactive) | GI50 (OVCAR-8): > 50 µM (inactive) | GI50 (LXFL 529): > 50 µM (inactive) | GI50 (LOX IMVI): > 50 µM (inactive) | GI50 (ACHN): > 50 µM (inactive) | GI50 (CAKI-1): > 50 µM (inactive) | GI50 (SNB-19): > 50 µM (inactive) | GI50 (SK-MEL-5): > 50 µM (inactive) | GI50 (UACC-257): > 50 µM (inactive) | GI50 (NCI-H460): > 50 µM (inactive) | GI50 (RXF 393): > 50 µM (inactive) | GI50 (KM12): > 50 µM (inactive) | GI50 (SF-268): > 50 µM (inactive) | GI50 (UACC-62): > 50 µM (inactive) | GI50 (U-251): > 50 µM (inactive) | GI50 (HCC 2998): > 50 µM (inactive) | GI50 (SNB-78): > 50 µM (inactive) | GI50 (DMS-273): > 50 µM (inactive) | GI50 (M14): > 50 µM (inactive) | GI50 (COLO 205): > 50 µM (inactive) | GI50 (UO-31): > 50 µM (inactive)
